Source: US20120214862A1, “MODULATION OF FACTOR 7 EXPRESSION” (ISIS Pharmaceuticals, Inc., priority 2009, published 2012)
In the oligonucleotide strings, read from the 5' end, every base follows the letter of its sugar. An asterisk marks phosphorothioate; unmarked linkages are phosphodiester. Other units and linkages are bracketed, terminal groups are in braces. A string of capitals states the bases alone. e = 2'-O-(2-methoxyethyl) (MOE); [5mC] = 5-methylcytosine; d = 2'-deoxy (DNA)

Key:
Format in all cases: cell-based
human Factor 7 mRNA [1] = experiment: Dose-dependent antisense inhibition of human Factor 7 in HepB3 cells, transfection with electroporation
Summary of the method: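 HepB3 cells, 20,000/well, electroporated with gapmers at 3.125–100 μM; about 16 h treatment. Factor 7 mRNA by qRT-PCR with primer probe set RTS 2927, normalized to RIBOGREEN total RNA; percent inhibition versus untreated cells.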

human Factor 7 mRNA [2] = experiment: Antisense inhibition of human Factor 7 mRNA in HepB3 cells, lipofectin, 50 nM, real-time RT-PCR; conditions: HepB3 cells; gapmers targeted to nucleobases 15188 to 15211 of SEQ ID NO: 1 (Table 13)
Summary of the method: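 Percent inhibition of Factor 7 mRNA, relative to untreated control, comes from real-time RT-PCR with RIBOGREEN normalization, using primer probe set RTS 2927 in some runs. RNA was taken roughly 24 h after lipofectin delivery of 50 nM oligonucleotide into HepB3 cells.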

human Factor 7 mRNA [3] = experiment: Dose-dependent antisense inhibition of human Factor 7 in HepB3 cells, transfection with lipofectin; conditions: lipofectin, HepB3 cells, 16 hours
Summary of the method: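 HepB3 cells (4,000/well) lipofectin-transfected with antisense oligonucleotide at 3.125 or 6.25 up to 100 nM for ~16 h. Factor 7 mRNA measured by real-time RT-PCR with primer probe set RTS 2927, adjusted to RIBOGREEN total RNA; expressed as percent inhibition versus untreated control cells.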

[4] = 3.125 μM, 16 hours (Example 7, Table 15)
[5] = 6.25 μM, 16 hours (Example 7, Table 15)
[6] = 12.5 μM, 16 hours (Example 7, Table 15)
[7] = 25 μM, 16 hours (Example 7, Table 15)
[8] = 50 μM, 16 hours (Example 7, Table 15)
[9] = 100 μM, 16 hours (Example 7, Table 15)

Substance	percent inhibition of Factor 7 mRNA, relative to untreated control cells (human Factor 7 mRNA [1]; [4])	percent inhibition of Factor 7 mRNA, relative to untreated control cells (human Factor 7 mRNA [1]; [5])	percent inhibition of Factor 7 mRNA, relative to untreated control cells (human Factor 7 mRNA [1]; [6])	percent inhibition of Factor 7 mRNA, relative to untreated control cells (human Factor 7 mRNA [1]; [7])	percent inhibition of Factor 7 mRNA, relative to untreated control cells (human Factor 7 mRNA [1]; [8])	percent inhibition of Factor 7 mRNA, relative to untreated control cells (human Factor 7 mRNA [1]; [9])	% Inhibition of human Factor 7 mRNA levels (human Factor 7 mRNA [2])	percent inhibition of Factor 7 mRNA, relative to untreated control cells (human Factor 7 mRNA [3]; 3.125 nM)	percent inhibition of Factor 7 mRNA, relative to untreated control cells (human Factor 7 mRNA [3]; 12.5 nM)	percent inhibition of Factor 7 mRNA, relative to untreated control cells (human Factor 7 mRNA [3]; 25 nM)	percent inhibition of Factor 7 mRNA, relative to untreated control cells (human Factor 7 mRNA [3]; 50 nM)	percent inhibition of Factor 7 mRNA, relative to untreated control cells (human Factor 7 mRNA [3]; 100 nM)	percent inhibition of Factor 7 mRNA, relative to untreated control cells (human Factor 7 mRNA [3])	percent inhibition of Factor 7 mRNA, relative to untreated control cells (human Factor 7 mRNA [1]; 3.125 μM, 16 hours (Example 8, Table 16))	percent inhibition of Factor 7 mRNA, relative to untreated control cells (human Factor 7 mRNA [1]; 6.25 μM, 16 hours (Example 8, Table 16))	percent inhibition of Factor 7 mRNA, relative to untreated control cells (human Factor 7 mRNA [1]; 12.5 μM, 16 hours (Example 8, Table 16))	percent inhibition of Factor 7 mRNA, relative to untreated control cells (human Factor 7 mRNA [1]; 25 μM, 16 hours (Example 8, Table 16))	percent inhibition of Factor 7 mRNA, relative to untreated control cells (human Factor 7 mRNA [1]; 50 μM, 16 hours (Example 8, Table 16))	percent inhibition of Factor 7 mRNA, relative to untreated control cells (human Factor 7 mRNA [1]; 100 μM, 16 hours (Example 8, Table 16))
422228 (antisense eT*eG*d[5mC]*dA*dT*dG*dG*dT*dG*dA*dT*dG*d[5mC]*dT*dT*e[5mC]*eT*eG*eA*eA) [compound 422228]	18%	33%	40%	47%	71%	83%	73%	17%	43%	60%	78%	90%	25%	–	–	–	–	–	–
422086 (antisense eT*eG*e[5mC]*eA*eT*dG*dG*dT*dG*dA*dT*dG*d[5mC]*dT*dT*e[5mC]*eT*eG*eA*eA) [compound 422086]	20%	34%	44%	63%	75%	84%	81%	8%	46%	65%	83%	90%	26%	25%	48%	74%	82%	86%	90%
